Results taken from US4631293A, “(-) Campholenic acid ester of salicylic acid and pharmaceutically acceptable salts thereof having mucosecretolytic, anti-inflammatory, analgesic, and antipyretic activity” (Camillo Corvi S.p.A., priority 1984, dated 1986).
Entries after “also recorded” stand apart in the source; their conditions may differ. Where two headings read alike, the source gives them in different places.

Key:
bronchial secretion = assay: Bronchosecretagogue activity: quantitative evaluation of the bronchial secretion of rabbit (Scuri et al.); format: in vivo, rabbit (adult male brown); settings: oral
Excerpt: Method of quantitative evaluation of the bronchial secretion of rabbit according to Scuri R. et al. Boll. Chim. Farm. […] Adult male brown rabbits (2.8-3.5 kg of body weight) are employed, to which a T shaped tracheal cannula, by surgical operation, as described in the mentioned bibliographic reference, is applied. To the cannula, a container for periodical collection of the bronchial secretion is applied. The study of mucoproduction, started at the fourth day after the operation, is divided into two periods, each of 4 hours, for collecting and measuring the mucus secreted. The action of the drug under examination, is tested by administering the same orally at the begining of the second mucus collection period and evaluating the percent increase of mucus production (as measured gravimetrically in the second period in comparison with the first period).

yeast induced pyrexia = assay: Antipyretic activity: yeast induced pyrexia in the rat; format: in vivo, rat (female Wistar albine); settings: for ED50: oral simultaneously with yeast, Temperature Index
Method: Method of yeast induced pyrexia in the rat. Female Wistar albine rats, weighing 100-140 g, are utilized. The animals having a basal rectal temperature from 36° to 37° C. are selected. The testing substances are administered orally simultaneously with the pyretic agent (dry brewers' yeast suspended in water at the 20% concentration, administered volume 15 ml/kg, subcutaneously) to groups of 5 animals per dose. After 4, 5, 6, 7 and 24 hours from the treatment, the rectal temperature of the animals is recorded by an Ellab RM6 probe, connected to an Ellab-mod. TE-3 thermometer. The activity of the drugs is evaluated by utilizing a Temperature Index, which is given by the algebraic sum of the differences in the rectal temperature between the measure values at different times and the basal value;

[1] = tested on: phenylquinone abdominal contractions; assay: Analgesic activity: phenylquinone method (abdominal contractions); format: in vivo, mouse (female Swiss albine); settings: for ED50: read-out: Analgesic activity ED50; for analgesic activity (in words): oral, comparison with acetylsalicylic acid
Method: Female Swiss albine mice (20-25 g), fasting for 2 hours, are utilized.
The test drug is administered orally 30 minutes before the endoperitoneal injection of phenylquinone (0.08 mg/mouse).
The characteristic abdominal contractions are counted individually during a 20 minutes period.

[2] = tested on: carrageenin induced oedema; assay: Anti-oedemigenous activity: carrageenin induced oedema (Winter et al.); format: in vivo, rat (female albine Wistar); settings: for ED40: 3 h, read-out: Anti-oedemigenous activity ED40
Method: Method of carrageenin induced oedema according to Winter C. A. et al--Proc. Soc. […] Female albine Wistar rats (120-160 g of body weight) are utilized. The drug under test is administered orally one hour before injection into the right hind paw of a carrageenin water suspension (1% volume injected ml 0.05).

pleural exudate = assay: Anti-exudative activity: quantitative evaluation of the pleural exudate of a rat (carrageenin pleuritis); format: in vivo, rat (female albine Wistar); settings: for ED50: 6 h, read-out: Anti-exudative activity ED50
Method: Method of the quantitative evaluation of the pleural exudate of a rat according to Vinegar E. et al.-Proc. Soc. […] Female albine Wistar rats (average weight 160 g), fasting from the evening preceding the test, are used. The experimental pleuritis is induced by injecting into the pleural cavity, under ethereal anesthesia, 0.15 ml of a 1% carrageenin solution (Prodotti Gianni-Milano). The test drug is administered orally, half an hour before the carrageenin. Six hours after the carrageenin injection, the animals are sacrificed and volumetric measurement of the pleural exudate, as withdrawn by a syringe, is performed.

[3] = Lethal dose 50 (LD50) in the mouse after a single oral administration; format: in vivo; settings: in vivo, single administration, 14th day mortality
Method: (§1) Method for studying the lethal dose 50(LD50) in the mouse after a single administration.
(§2) Groups of 10 Swiss albine, female, adult (20-22 g of body weight) mice, fasting from the evening preceding the test, are treated orally with various doses of the test drug suspended in hydroxyethylcellulose (0.50% weight/volume).
(§3) Thereafter, the animals are fed again.
(§4) LD50 is calculated by the method of Litchfield J. T. and Wilcoxon F. (J. Pharmacol. 96, 99-113, 1949) by utilizing the mortality data as obtained on the 14th day after the test drug administration.

mouse [4] = assay: as above; format: in vivo; settings: in comparison with acetylsalicylic acid
Method: as §1, §2, §3, §4

stomach [5] = assay: Gastric tolerability: gastric ulcerogenesys by repeated drug administrations; format: in vivo, rat (female Wistar albine); settings: rat
Method: (§5) Method of gastric ulcerogenesys by repeated drug administrations.
(§6) Fed female Wistar albine rats (140-160 g of initial body weight) are used.
(§7) The drug under test is administered orally, daily, for five days. At the end of the test the stomach of the rats is withdrawn, it is dissected along the lesser curvature, washed and observed in order to disclose the presence of either gastric lesions or manifest submucosa hemorrhages.
(§8) The "ulcerogenic dose 50" (UD50) is defined as the daily dose able to induce lesions or hemorrhages in 50% of the animals treated.

[6] = as above; format: in vivo, rat (female Wistar albine); settings: rat, in vivo, po
Method: as §5, §6, §7, §8

stomach [7] = settings: Arrigono-Martelli, Meth. Find. Exp. Clin. Pharmacol. 1, 157, 1979; 7200 min; cited from earlier work
mouse [8] = settings: literature datum, Hart E R J. Pharm. Exp. Ther. 89 205, 1947; 20160 min; cited from earlier work

For `CC1=CCC(CC(=O)Oc2ccccc2C(=O)O)C1(C)C` (single isomer, unassigned) [CO/1473, 2-(2,2,3-trimethyl-3-cyclopentene-1-acetoxy)benzoic acid], the ED50 (bronchial secretion; Oryctolagus cuniculus, 4 h, percent increase of mucus production) was 60 mg/kg, the “bronchosecretagogue activity (in words)” value (bronchial secretion) was “has bronchosecretagogue activity in the rabbit” and the ED50 (yeast induced pyrexia) was 400 mg/kg. The “antipyretic activity (in words)” value (yeast induced pyrexia; oral, comparison with acetylsalicylic acid) was “interesting antipyretic activity in the rat, though lower than the one of acetylsalicylic acid”, the ED50 ([1]; mouse, oral 30 minutes before phenylquinone) was 52 mg/kg and the “analgesic activity (in words)” value ([1]; mouse) was “slightly more active than acetylsalicylic acid”. The ED40 ([2]; rat, oral one hour before carrageenin, paw volume after three hours) was 400 mg/kg, the “anti-oedemigenous activity in comparison with acetylsalicylic acid (in words)” value ([2]; rat, oral, first test of Table 3) was “superior in the first test” and the ED50 (pleural exudate; rat, oral half an hour before carrageenin, exudate volume after six hours) was 320 mg/kg. For the same molecule, the “anti-exudative activity in comparison with acetylsalicylic acid (in words)” value (pleural exudate; rat, oral, second test of Table 3) was “slightly inferior in the second”, the LD50 at 336 h [3] was 913 mg/kg and the “acute toxicity (in words)” value (mouse [4]) was “low acute toxicity”. The “gastro-damaging effect (in words)” value (stomach [5]; up to the maximum dose of 800 mg/kg os/die for 5 days, listed as compound of the invention, 800 mg/kg) was “does not show any gastro-damaging effect; also recorded: very good gastric tolerability” and the NOAEL at 120 h [6] was 800 mg/kg.

In the case of `CC(=O)Oc1ccccc1C(=O)O` [acetylsalicylic acid, reference compound], the “Bronchosecretagogue activity ED50” value (bronchial secretion; percent increase of mucus production) is listed as “inactive”, the “UD50 (ulcerogenic dose 50)” value (stomach [7]) is listed as 48 mg/kg os and the LD50 (mouse [8]) is listed as 1100 mg/kg os. The ED50 (yeast induced pyrexia) was 157 mg/kg, the ED50 ([1]; Mus musculus, po) was 70 mg/kg and the “analgesic activity (in words)” value ([1]; mouse) was “good analgesic activity in the mouse”. For the same molecule, the ED40 ([2]; Rattus norvegicus, po) was 400 mg/kg, the ED50 (pleural exudate; Rattus norvegicus, po) was 215 mg/kg and the “gastro-damaging dose, times lower than that of CO/1473” value (stomach [5]; oral, acetylsalicylic acid dose versus CO/1473 dose) was 16 times lower.
